Drawing on US20240025918A1, “KRAS G12D Inhibitors” (Jacobio Pharmaceuticals Co., Ltd, priority 2020, published 2024), this text covers IC50 for 19 compounds.

For experiment [1], the target named is T1, GDP-loaded HIS-KRAS(G12D, aa 1-169) (Homo sapiens, UniProt P01116, G12D).
T1 construct: GDP-loaded HIS-KRAS(G12D, aa 1-169)
The experiment in a line: SOS1 catalyzed nucleotide exchange assay (TR-FRET). In kind it is biochemical. The conditions noted are these: 4 hours at 25° C. On the procedure: GDP-loaded HIS-KRAS(G12D, aa 1-169) was pre-incubated with a compound in the presence of 10 nM GDPin a 384-well plate (Greiner) for 15 min, then purified SOS1 ExD(Flag tag, aa 564-1049), BODIPY™ FL GTP (Invitrogen) and MAb (monoclonal antibody) Anti 6HIS-Tb cryptate Gold (Cisbio) were added to the assay wells (Final concentration: 1.5 nM GDP-loaded HIS-KRAS(G12D), 5 nM GDP, 0.5 μM SOS1 ExD, 80 nM BODIPY™ FL GTP, 52.5 ng/mL MAb Anti 6HIS-Tb cryptate Gold) and incubated for 4 hours at 25° C. Wells containing same percent of DMSO served as vehicle control, and wells without KRAS served as low control. TR-FRET signals were read on Tecan Spark multimode microplate reader. The parameters were F486: Excitation 340 nm, Emission 486 nm, Lag time 100 μs, Integration time 200 μs; F515: Excitation 340 nm, Emission 515 nm, Lag time 100 μs, Integration time 200 μs. TR-FRET ratios for each individual wells were calculated by equation: TR-FRET ratio=(Signal F515/Signal F486)*10000. The percent of activation of compounds treated wells were normalized between vehicle control and low control (% Activation=(TR-FRET ratioCompound treated−TR-FRET ratioLow control)/(TR-FRET ratioVehicle control−TR-FRET ratioLow control)*100%). Then the data were analyzed by fitting a 4-parameter logistic model or calculating in Excel to calculate IC50 values.
On the technique in general: TR-FRET usually uses a lanthanide donor and a delayed reading to cut background.

The target in experiment [2] is T2, GppNp-loaded HIS-KRAS(G12D, aa 1-169) and cRAF RBD (Homo sapiens, UniProt P01116, G12D).
T2 construct: GppNp-loaded HIS-KRAS(G12D, aa 1-169)
T2 sequence (P01116 1-169 isoform P01116-2 G12D): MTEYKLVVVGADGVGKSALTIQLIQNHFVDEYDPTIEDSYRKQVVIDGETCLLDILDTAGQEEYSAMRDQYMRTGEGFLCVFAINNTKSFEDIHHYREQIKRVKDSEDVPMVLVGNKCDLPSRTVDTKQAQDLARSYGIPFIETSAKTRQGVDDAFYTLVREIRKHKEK
The experiment in a line: GTP-KRAS and cRAF interaction assay (HTRF). Format: biochemical. The conditions noted are these: 2 hours at 25° C. On the procedure:
GppNp-loaded HIS-KRAS(G12D, aa 1-169) was pre-incubated with a compound in the presence of 200 μM GTP in a 384-well plate (Greiner) for 15 min, then cRAF RBD(GST tag, aa 50-132, CreativeBioMart), MAb Anti GST-d2 (Cisbio) and MAb Anti 6HIS-Tb cryptate Gold (Cisbio) were added to the assay wells (Final concentration: 2.0 nM GppNp-loaded HIS-KRAS(G12D), 100 μM GTP, 35 nM cRAF RBD, 1 μg/mL MAb Anti GST-d2, 52.5 ng/mL MAb Anti 6HIS-Tb cryptate Gold) and incubated for 2 hours at 25° C. Wells containing same percent of DMSO served as vehicle control, and wells without KRAS served as low control. HTRF signals were read on Tecan Spark multimode microplate reader and HTRF ratios were calculated under manufacturer's instructions. The percent of activation of compounds treated wells were normalized between vehicle control and low control (% Activation=(HTRF ratioCompound treated−HTRF ratioLow control)/(HTRF ratioVehicle control−HTRF ratioLow control)*100%). Then the data were analyzed by fitting a 4-parameter logistic model or calculating in Excel to calculate IC50 values.

Experiment [3] relates to AGS cells expressing KRAS G12D. The experiment in a line: Phospho-ERK1/2(THR202/TYR204) HTRF assay. Format: cell-based. To be noted: Homo sapiens; Phospho-ERK1/2 in AGS cells, 2 hours incubation. How it is done: AGS cells expressing KRAS G12D were cultured in F12K medium (Gibco) containing 10% fetal bovine serum (Gibco). The AGS cells in culture medium were seeded in 96-well plates at a concentration of 40,000 cells/well and then put in a 37° C./5% CO2 cell incubator to incubate overnight. The next day, culture medium was removed and the compound diluted in assay medium (F12K, 0.1% FBS) was added in each well. After 2 hours incubation in a 37° C./5% CO2 cell incubator, the assay medium in 96-well plates was removed, then 50 μL of 1× blocking reagent-supplemented lysis buffer (Cisbio) was added and the plates were incubated at 25° C. for 45 min with shaking. 10 μL of cell lysates from the 96-well plates were transferred to a 384-well plate (Greiner) containing 2.5 μL/well HTRF® pre-mixed antibodies (Cisbio 64AERPEH). Incubate 4 hours at 25° C. and then read HTRF signals on Tecan Spark multimode microplate reader. The data were analyzed using a 4-parameter logistic model to calculate IC50 values.

For experiment [4], the system named is AsPC-1. In words: Cell growth inhibition assay, AsPC-1 (CellTiter-Glo). In kind it is cell-based. To be noted: Homo sapiens, ASPC1, 144 h; AsPC-1 cell viability, 6 days incubation. On the procedure: AsPC-1 cultured in RPMI-1640 medium (Gibco) containing 10% fetal bovine serum (Gibco). Cells in culture medium were plated in 96-well plates at a concentration of 1000 cells/well (100 μL/well) and allowed to attach overnight.
(§1) The next day, compounds were diluted in culture medium and added to the plates. After 6 days incubation in a 37° C./5% CO2 cell incubator, the cell viability was detected by CellTiter-Glo® Luminescent Cell Viability Assay kit (Promega). Luminescent signals were read on Tecan Spark multimode microplate reader and analyzed using a 4-parameter logistic model to calculate IC50 values.

The subject of experiment [5] is AGS. In words: Cell growth inhibition assay, AGS (CellTiter-Glo). Format: cell-based. To be noted: Homo sapiens, 144 h; AGS cell viability, 6 days incubation. On the procedure:
AGS cultured in F12K medium (Gibco) containing 10% fetal bovine serum (Gibco). Cells in culture medium were plated in 96-well plates at a concentration of 500 cells/well (100 μL/well) and allowed to attach overnight.
as §1
On the technique in general: Cellular ATP, detected with luciferase, serves as a proxy for viable cell number.

T1 sequence (P01116 1-169 isoform P01116-2 G12D): as above

As usually defined, the IC50 is the concentration needed to halve the response being measured. A low value points to inhibition by little substance. In the case of `C#Cc1cccc2cc(O)cc(-c3c(F)cc4c(N5CC6CCC(C5)N6)nc(OCC5(CN6CCOC7(CC7)C6)CC5)nc4c3F)c12` (single isomer, unassigned) [Compound 2B], the IC50 in experiment [1] was found to be 1.24 nM; in experiment [2], 41.3 nM; in experiment [3], 30.3 nM; in experiment [4], 13.5 nM; in experiment [5], 0.892 nM.
The like results for `C#Cc1cccc2cc(O)cc(-c3c(F)cc4c(N5CC6CCC(C5)N6)nc(OCC5(CN6CCC7(CC6)CC7(F)F)CC5)nc4c3F)c12` [Compound 3] were, in that order, 37.1 nM, 115 nM, 95.5 nM, 22.8 nM and 6.76 nM.
The corresponding values for `C#Cc1c(F)ccc2cc(O)cc(-c3ccc4c(N5CC6CCC(C5)N6)nc(OCC5(CN6C7CCC6COC7)CC5)nc4c3F)c12` [Compound 7] are 6.27 nM, 27.2 nM, 3.53 nM, 72.2 nM and 5.66 nM.
The corresponding values for `C#Cc1cccc2cc(O)cc(-c3ccc4c(N5CC6CCC(C5)N6)nc(OCC5(CN6CC7CCC(C6)O7)CC5)nc4c3F)c12` [Compound 8] are 16.8 nM, 307 nM, 21.2 nM, 55.3 nM and 31.6 nM.
As for `C#Cc1cccc2cc(O)cc(-c3ccc4c(N5CC6CCC(C5)N6)nc(OCC5(CN6CC7CC6CO7)CC5)nc4c3F)c12` (stereo not shown) [Compound 9], the IC50 in experiment [1] worked out at 7.77 nM; in experiment [2] it was 62 nM; in experiment [3] it was 2.59 nM; in experiment [4], 138 nM; in experiment [5], 10.5 nM.
The corresponding values for `C#Cc1cccc2cc(O)cc(-c3ccc4c(N5CC6CCC(C5)N6)nc(OCC5(CN6C7CCC6COC7)CC5)nc4c3F)c12` [Compound 10] are 12.1 nM, 77.3 nM, 6.18 nM, 57.6 nM and 11.1 nM.
The like results for `C#Cc1cccc2cc(O)cc(-c3c(F)cc4c(N5CC6CCC(C5)N6)nc(OCC5(CN6CCC7(CCO7)CC6)CC5)nc4c3F)c12` [Compound 11] were, in that order, 31.6 nM, 86.6 nM, 9.49 nM, 214 nM and 15.7 nM.
The like results for `C#Cc1cccc2cc(O)cc(-c3c(F)cc4c(N5CC6CCC(C5)N6)nc(OCC5(CN6CCC7(CC6)COC7)CC5)nc4c3F)c12` [Compound 12] were, in that order, 14.2 nM, 80.8 nM, 1.94 nM, 83.2 nM and 3.69 nM.
Take `C#Cc1cccc2cc(O)cc(-c3c(F)cc4c(N5CC6CCC(C5)N6)nc(OCC5(CN6CCC7(C6)CC7(F)F)CC5)nc4c3F)c12` (stereo not shown) [Compound 14]: the IC50 in experiment [1] amounted to 4.36 nM; in experiment [2], 79.2 nM; in experiment [3] it was 182 nM; in experiment [4] it was 26.5 nM; in experiment [5] it was 10.7 nM.
The corresponding values for `C#Cc1cccc2cc(O)cc(-c3c(F)cc4c(N5CC6CCC(C5)N6)nc(OCC5(CN6CCc7cccnc7C6)CC5)nc4c3F)c12` [Compound 15] are 6.06 nM, 157 nM, 68.9 nM, 97.3 nM and 13.9 nM.
For `C#Cc1cccc2cc(O)cc(-c3c(F)cc4c(N5CC6CCC(C5)N6)nc(OCC5(CN6Cc7cccnc7C6)CC5)nc4c3F)c12` [Compound 17], the IC50 in experiment [1] is 1.99 nM; in experiment [2], 273 nM; in experiment [3] it was 56.3 nM; in experiment [4], 158 nM; in experiment [5], 11.8 nM.
The like results for `C#Cc1cccc2cc(O)cc(-c3c(F)cc4c(N5CC6CCC(C5)N6)nc(OCC5(CN6CC7(COC7)C6)CC5)nc4c3F)c12` [Compound 19] were, in that order, 2.27 nM, 66.9 nM, 19.8 nM, 710 nM and 12.9 nM.
The corresponding values for `C#Cc1cccc2cc(O)cc(-c3c(F)cc4c(N5CC6CCC(C5)N6)nc(OCC5(CN6CC7(CCC7)C6)CC5)nc4c3F)c12` [Compound 20] are 1.33 nM, 58.1 nM, 39.2 nM, 264 nM and 23.3 nM.
In the case of `C#Cc1cccc2cc(O)cc(-c3c(F)cc4c(N5CC6CCC(C5)N6)nc(OCC5(CN6CC(OC)C6)CC5)nc4c3F)c12` [Compound 21], the IC50 was found to be 1.94 nM in experiment [1]; 74.5 nM in experiment [2]; 13.5 nM in experiment [3]; 334 nM in experiment [4]; 16.3 nM in experiment [5].
For `C#Cc1cccc2cc(O)cc(-c3c(F)cc4c(N5CC6CCC(C5)N6)nc(OCC5(CN6CC7(CCOCC7)C6)CC5)nc4c3F)c12` [Compound 22], the IC50 turned out to be 1.39 nM in experiment [1]; 40.2 nM in experiment [2]; 6.95 nM in experiment [3]; 413 nM in experiment [4]; 19.7 nM in experiment [5].
The like results for `C#Cc1cccc2cc(O)cc(-c3c(F)cc4c(N5CC6CCC(C5)N6)nc(OCC5(CN6CC7COCC7C6)CC5)nc4c3F)c12` (stereo not shown) [Compound 24] were, in that order, 1.26 nM, 25.2 nM, 2.48 nM, 36 nM and 3.66 nM.
The like results for `C#Cc1cccc2cc(O)cc(-c3c(F)cc4c(N5CC6CCC(C5)N6)nc(OCC5(CN6CC7CCCC7C6)CC5)nc4c3F)c12` (stereo not shown) [Compound 25] were, in that order, 1.48 nM, 51 nM, 14.7 nM, 96.6 nM and 13.2 nM.
The corresponding values for `C#Cc1cccc2cc(O)cc(-c3c(F)cc4c(N5CC6CCC(C5)N6)nc(OCC5(CN6CC(C)(OC)C6)CC5)nc4c3F)c12` [Compound 27] are 9.61 nM, 190 nM, 19.3 nM, 533 nM and 29.3 nM.
For `C#Cc1cccc2cc(O)cc(-c3c(F)cc4c(N5CC6CCC(C5)N6)nc(OCC5(CN6Cc7ccccc7C6)CC5)nc4c3F)c12` [Compound 58], the IC50 amounted to 2.04 nM in experiment [1], 188 nM in experiment [2], 91 nM in experiment [4] and 34 nM in experiment [5].
